Laboratory results reported in paper PMC9569447 (International Journal of Molecular Sciences, 2022).
“Also recorded” adds a separate entry of the source. Marks after values point to notes of the source that are not given here. Numbered stars: 1 amine (or outer) side, 2 acyl side, 3 side chain; on linkers, the order of the positions; unused ones are H or OH. Bridge positions count the residues as written; N and C are the ends. Square brackets hold non-standard residues; d marks the D form. Side chains are listed from the residue outwards. Peptide text beside a SMILES is read from it. * marks the point of attachment. PEG8 = NCCOCCOCCOCCOCCOCCOCCOCCOCCC(=O)O; Palmitoyl = CCCCCCCCCCCCCCCC(=O)*; hCys = N[C@@H](CCS)C(=O)O; X1 = O=C(CC[*:2])[*:1]

What was measured:
hOXTR = biological target: T1, hOXTR (Homo sapiens, UniProt P30559); assay: In vitro functional assay at the OXT receptor (Ca2+ flux, fluorometric imaging plate reader); type: cell-based; settings: ratio of EC50 values hOXTR/hV2R
T1 construct: expressed in transfected cells
T1 sequence (P30559 1-389): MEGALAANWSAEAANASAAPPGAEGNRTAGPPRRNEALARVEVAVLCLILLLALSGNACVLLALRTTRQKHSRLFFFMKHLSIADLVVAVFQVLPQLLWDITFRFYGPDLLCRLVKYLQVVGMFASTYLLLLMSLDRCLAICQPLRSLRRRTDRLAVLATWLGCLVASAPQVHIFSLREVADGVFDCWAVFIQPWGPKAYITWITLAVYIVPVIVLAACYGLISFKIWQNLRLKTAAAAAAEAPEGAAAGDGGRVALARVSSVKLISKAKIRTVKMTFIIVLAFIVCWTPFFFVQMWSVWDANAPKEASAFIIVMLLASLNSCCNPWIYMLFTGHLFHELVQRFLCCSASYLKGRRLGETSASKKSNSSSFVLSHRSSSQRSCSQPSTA
Protocol: In a typical experimental protocol, stably transfected Chinese hamster ovary (CHO) hOTR NFAT bLac cells were plated at a density of 10,000 cells/well in a 384-well plate in growth medium (Dulbecco’s modified Eagle’s medium + Glutamax (Thermo Fisher Scientific, Waltham, MA, USA), 10% dialyzed fetal bovine serum). The next day calcium-sensitive, fluo-4 dye (Invitrogen, Carlsbad, CA, USA) and probenecid (Invitrogen; 2.5 mM) was dissolved in 20 mL warm dye loading buffer (Hanks’ balanced salt solution with calcium and magnesium, 20 mM Hepes, pH 7.4) and added to each well. Plates were incubated for 60–120 min in a 37 °C cell incubator to allow cells to uptake the dye. […] After dye-loading, the cell plates were placed on the fluorometric imaging plate reader. A total of […] of test compound was added to the […] of dye on the cells, and intracellular Ca^2+ was monitored for 90 s. Intracellular Ca^2+ concentrations were calculated as the maximum increase over basal levels. Responses were normalized to control responses. Data were analyzed by curve fitting.

human V2 receptor = biological target: T2, human V2 receptor (Homo sapiens, UniProt P30518); assay: In vitro functional assay at V2R (cAMP production, HTRF); type: cell-based; settings: result in words
T2 construct: expressed in transfected cells; host or cells: CHO
T2 sequence (P30518 whole entry): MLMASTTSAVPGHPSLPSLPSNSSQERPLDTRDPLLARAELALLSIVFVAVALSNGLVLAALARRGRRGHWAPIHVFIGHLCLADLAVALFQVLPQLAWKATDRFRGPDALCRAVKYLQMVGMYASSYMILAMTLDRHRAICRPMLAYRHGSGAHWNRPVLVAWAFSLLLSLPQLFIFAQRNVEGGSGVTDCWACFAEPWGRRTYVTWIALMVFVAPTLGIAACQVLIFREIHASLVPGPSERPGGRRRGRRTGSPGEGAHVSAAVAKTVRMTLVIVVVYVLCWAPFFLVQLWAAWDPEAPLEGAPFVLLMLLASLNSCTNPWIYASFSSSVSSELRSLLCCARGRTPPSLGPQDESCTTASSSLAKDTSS
Protocol: Evaluation of the agonist activity of ASK2131 at the human V2 receptor expressed in stably transfected CHO cells was conducted by measuring its effects on cAMP production using the HTRF detection method. The cells were suspended in HBSS buffer (Invitrogen, Carlsbad, CA) complemented with 20 mM HEPES (pH 7.4), 0.01% BSA and 500 μM IBMX, then distributed in microplates at a density of […] cells/well and incubated for 30 min at room temperature in the absence (control) or presence of the test compound or the reference agonist.
For stimulated control measurement, separate assay wells contained 1 nM AVP. Following incubation, the cells were lysed, and the fluorescence acceptor (D2-labeled cAMP) and fluorescence donor (anti-cAMP antibody labeled with europium cryptate) were added. After 60 min at room temperature, the fluorescence transfer was measured at λex = 337 nm and λem = 620 and 665 nm using a microplate reader (Envision, Perkin Elmer, Waltham, MA, USA). The cAMP concentration was determined by dividing the signal measured at 665 nm by that measured at 620 nm (ratio).
The results were expressed as a percent of the control response to 1 nM AVP. The standard reference agonist was AVP, which was tested in each experiment at several concentrations to generate a concentration-response curve from which its EC50 value was calculated.

[1] = system: diet-induced obese (DIO) Sprague Dawley rats; assay: Post-treatment serum levels after the 22-day treatment; type: in vivo, rat
Protocol: Cardiac puncture was used to collect blood for analysis 2 h post final injection. Commercially available enzyme-linked immunosorbent assays (ELISA) were used for quantitative assessment of leptin (cat. # EZRL-83K; MilliporeSigma, Burlington, MA, USA), insulin (cat. # EZRMI-13K; MilliporeSigma, Burlington, MA, USA), and adiponectin (cat. # EZRAPD-62K MilliporeSigma, Burlington, MA, USA). Serum samples were diluted 1:500 for the adiponectin ELISA using the sample diluent provided with the kit. All ELISAs were completed following the manufacturers recommendations. Levels of glucose, cholesterol (total, HDL, and calculated LDL), triglycerides, ALT, and AST were determined in the serum on a Modular P chemistry analyzer (Roche Diagnostics, Risch-Rotkreuz, Switzerland) by the University of Washington Nutrition and Obesity Research Center’s Analytic Core (Seattle, WA, USA).

UCP1 = assay: Gene expression of UCP1 in IWAT and IBAT (qRT-PCR); type: in vivo, rat
Description: IWAT and IBAT were homogenized using a TissueLyser LT (Qiagen, Hilden, Germany). RNA was extracted from the tissue lysates using the RNeasy Lipid Mini Kit (mfg. # 74804; Qiagen, Hilden, Germany) and reverse transcribed using the high-capacity cDNA kit (mfg. # 4368814; Applied Biosystems, Waltham, MA, USA). qRT-PCR was completed on the mRNA samples using the Applied Biosystems StepOnePlus System (Applied Biosystems, Waltham, MA, USA). All samples were normalized to the cycle threshold value of 18S mRNA. The following TaqMan® probes (Applied Biosystems, Waltham, MA, USA) were used in this study: 18S (cat. # Hs99999901_s1), UCP1 (cat. # Rn00562126_m1), and Cox8b (cat. # Rn00562884_m1). Analysis was completed using the delta CT method.

[2] = system: diet-induced obese (DIO) Sprague Dawley rats; assay: Dose escalation study: body weight, food and water intake; type: in vivo, rat
Description: Male DIO Sprague Dawley rats (n = 4) were fed 60% HF diet (formula: D12492; Research Diets, Inc., New Brunswick, NJ, USA; 5.21 kcal/g) for 16 weeks prior to the start of the study. Rats were changed to being singly housed and allowed to acclimate for at least one week prior to the start of this study. Animals averaged 844.15 ± 99.95 g at baseline. Baseline measures of body weight, food intake, and water intake were taken for 6 days before drug administration began. Doses for the dose escalation study included 1, 2, 5, 10, 20, 50, and 100 nmol/kg. Body weight, food and water intake were assessed just prior to the start of the dark cycle.

[3] = serum ELISA, after 22 days, mean ± SEM, n = 6 (Oxytocin n = 4)
[4] = serum, 2 h post final injection after 22 days, mean ± SEM, n = 6 (Oxytocin n = 4)

CCCCCCCCCCCCCCCC(=O)NCCOCCOCCOCCOCCOCCOCCOCCOCCC(=O)NCCCC[C@H](NC(=O)CNC(=O)[C@@H]1CCSCCC(=O)N[C@@H](Cc2ccc(O)cc2)C(=O)N[C@@H]([C@@H](C)CC)C(=O)N[C@@H](CCC(N)=O)C(=O)N[C@@H](CC(N)=O)C(=O)N1)C(=O)NCC(N)=O [ASK2131] (YIQN[hCys]GK([PEG8-Palmitoyl])G-NH2; linker N-5 via X1)
Ratio hOXTR/hV2R (hOXTR): 3.06 | V2R activation (human V2 receptor): potent activator of V2R; also recorded: activate V2R | Calculated LDL ([1]; Calculated LDL = Cholesterol − (HDL + Triglycerides/5), serum after 22 days, mean ± SEM): 15 ± 5 mg/dL | Cholesterol vs. vehicle treated animals ([1]; after 22 days of treatment, result in words): significantly reduced | Insulin [1, 3]: 6.7 ± 1.0 ng/mL | Leptin [1, 3]: 39 ± 9.1 ng/mL | Adiponectin ([1]; serum ELISA, diluted 1:500, after 22 days, mean ± SEM, n = 6 (Oxytocin n = 4)): 62.4 ± 7.3 ng/mL | ALT [1, 4]: 26 ± 2 U/L | AST [1, 4]: 73 ± 8 U/L | Cholesterol [1, 4]: 67 ± 6 ^b mg/dL | Glucose [1, 4]: 237 ± 12 mg/dL | HDL [1, 4]: 21 ± 2 mg/dL | Triglycerides [1, 4]: 182 ± 30 mg/dL | gene expression (UCP1, Cox8b) in comparison to the vehicle treated group (UCP1; IWAT and IBAT, result in words): none of the examined genes showed a significant response | UCP1 expression in IBAT, mean rank difference (MRD), ASK2131 relative to OXT treatment (UCP1; interscapular brown adipose tissue, qRT-PCR normalized to 18S, p = 0.011): −12.5 | UCP1 expression in IWAT, mean difference (MD), ASK2131 relative to OXT treatment (UCP1; qRT-PCR normalized to 18S, 95% CI −4.23 to 0.42, p = 0.014): −2.32 | 2-day averaged food intake reduction relative to baseline ([2]; DIO rats, at doses < 2 nmol/kg and > 5 nmol/kg): 20–25% | loss in body weight compared to baseline ([2]; DIO rats, once daily sc doses rising every two days from 1 to 100 nmol/kg, average per rat over the treatment period): 8.4% | decrease in body weight compared to baseline ([2]; at 2 nmol/kg, after only four treatments): ~ 4% | adverse response ([2]; one rat with severe diarrhea was terminated and excluded, result in words): No other animals treated with ASK2131 showed any signs of an adverse response | water intake ([2]; with increased dosing of ASK2131, result in words): not significantly different from baseline
